Where a name gives a salt, the structure may show the parent alone.
Key:
[1] = test system: abdominal skin of CD male rats; experiment: Testing for irritation by single subcutaneous administration to rats; type: in vivo; parameters: key: — No inflammation; Amount of Inflammation: * < ** < *** < ****; Amount of Inflammation: * < ** < *** < ****; Amount of Inflammation: * < ** < *** < ****; Amount of Inflammation: * < ** < *** < ****; conditions: single subcutaneous administration 0.1 ml, 2% in DMSO and saline
Experimental: Experiment 2: Testing for Irritation by Single Subcutaneous Administration to Rats
A test compound was measured and dissolved in DMSO and a saline solution in a concentration of 2%.

Recombinant human renin = target: T1, Recombinant human renin (Homo sapiens, UniProt P00797); experiment: In vitro renin inhibitory activity assay; type: biochemical; conditions: recombinant human renin 4.2 ng/mL, substrate 4 μM, 37° C., one hour, pH 7.4
T1 sequence (P00797 67-406): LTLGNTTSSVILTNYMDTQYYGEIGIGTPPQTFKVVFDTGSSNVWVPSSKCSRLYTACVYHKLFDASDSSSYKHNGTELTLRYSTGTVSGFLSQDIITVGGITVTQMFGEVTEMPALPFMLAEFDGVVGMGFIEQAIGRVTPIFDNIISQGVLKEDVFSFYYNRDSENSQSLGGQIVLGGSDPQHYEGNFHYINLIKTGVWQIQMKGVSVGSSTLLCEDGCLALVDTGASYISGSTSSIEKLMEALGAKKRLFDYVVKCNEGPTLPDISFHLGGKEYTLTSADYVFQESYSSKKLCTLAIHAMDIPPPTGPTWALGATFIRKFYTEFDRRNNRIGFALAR
Experimental: Experiment 1: In Vitro Renin Inhibitory Activity Assay
Recombinant human renin (4.2 ng/mL) was reacted in 0.1M HEPES buffer (pH 7.4) containing 0.1M NaCl, 1 mM EDTA and 0.1 mg/mL BSA together with a substrate and a test compound at 37° C. for one hour. As the substrate, Arg-Glu(EDANS)-Ile-His-Pro-Phe-His-Leu-Val-Ile-His-Thr-Lys(DABCYL)-Arg (SEQ ID NO: 1) or DABCYL-γ-Abu-Ile-His-Pro-Phe-His-Leu-Val-Ile-His-Thr-EDANS (SEQ ID NO: 2) was added in such an amount so that the final concentration thereof became 4 μM. The elevated fluorescence intensity at the exciting wavelength 340 nm and the fluorescence wavelength 500 nm was measured by a fluorescence plate reader. The concentration of a test compound to be needed to inhibit an enzyme activity in the presence of a test compound in several concentrations by 50% was calculated as an IC50 value. The test compounds were diluted in DMSO and used in this Experiment.

Row | IC50 (Recombinant human renin) | Structure (SMILES) | Observation at Administration Site, One day after administration [1] | Observation at Administration Site, Three days after administration [1]
1 | 5.3 nM | CCC(=O)NCCN1C(=O)C2(CCC2)Oc2cc(C)c(C(=O)N(C(C)C)C3CCCN(C(=O)OC(C)OC(=O)c4ccc(C)cc4)C3)cc21 (centres unmarked) [Example 79, 1-{[(4-Methylphenyl)carbonyl]oxy}ethyl 3-[({7-methyl-3-oxo-4-[2-(propanoylamino)ethyl]-3,4-dihydrospiro[1,4-benzoxazine-2,1′-cyclobutan]-6-yl}carbonyl)(2-propanyl)amino]-1-piperidinecarboxylate] | *** | ***
2 | 9.6 nM | CCC(=O)NCCN1C(=O)C(C)(C)Oc2cc(C)c(C(=O)N(C(C)C)C3CCCN(C(=O)OC(C)OC(=O)C4CCOCC4)C3)cc21 (single isomer, unassigned) [Example 87] | — | —
3 | 22 nM | CC(OC(=O)C(C)C)OC(=O)N1CCCC(N(C(=O)c2cc3c(cc2C(F)(F)F)OC2(CC2)C(=O)N3CCNC(=O)C(F)F)C(C)C)C1 (centres unmarked) [Example 72] |  | 
4 | 21 nM | CCC(=O)NCCN1C(=O)C2(CCC2)Oc2cc(C)c(C(=O)N(C(C)C)C3CCCN(C(=O)OC(C)OC(=O)CCCOC)C3)cc21 (centres unmarked) [Example 84] |  | 
5 | 2.6 nM | CCC(=O)NCCN1C(=O)C2(CC2)Oc2cc(C)c(C(=O)N(C(C)C)[C@@H]3CCCN(C(=O)OCc4oc(=O)oc4C)C3)cc21 [Example 40] |  | 
6 | 0.56 nM | CCC(=O)NCCN1C(=O)C(C)(COC)Oc2cc(C(F)(F)F)c(C(=O)N(C(C)C)C3CCCN(C(=O)OC(OC(=O)C(C)C)C(C)C)C3)cc21 (centres unmarked) [Example 76] |  | 
7 | 58 nM | CCOC(=O)OC(C)OC(=O)N1CCCC(N(C(=O)c2cc3c(cc2C(F)(F)F)OC(C)(COC)C(=O)N3CCNC(=O)CC)C(C)C)C1 (centres unmarked) [Example 38] |  | 
8 | 0.13 nM | CCC(=O)NCCN1C(=O)C2(CCC2)Oc2cc(C)c(C(=O)N(C(C)C)C3CCCN(C(=O)OC(C)OC(=O)C(F)F)C3)cc21 (centres unmarked) [Example 97] |  | 
9 | 9.1 nM | CCC(=O)NCCN1C(=O)C(C)(C)Oc2cc(C)c(C(=O)N(C(C)C)C3CCCN(C(=O)OC(C)OC(=O)CC4CC4)C3)cc21 (centres unmarked) [Example 98] |  | 
10 | 0.74 nM | CCC(=O)NCCN1C(=O)C(C)(COC)Oc2cc(C(F)(F)F)c(C(=O)N(C(C)C)C3CCCN(C(=O)OC(OC(=O)CC)C(C)C)C3)cc21 (centres unmarked) [Example 75] |  | 
11 | 20 nM | CCC(=O)NCCN1C(=O)C2(CCC2)Sc2cc(C)c(C(=O)N(C(C)C)[C@@H]3CCCN(C(=O)OCc4oc(=O)oc4C)C3)cc21 [Example 78] |  | 
12 | 1.9 nM | CCC(=O)NCCN1C(=O)C2(CCC2)Oc2cc(C)c(C(=O)N(C(C)C)[C@@H]3CCCN(C(=O)OC(C)OC(=O)c4cccnc4)C3)cc21 (stereo partly drawn) [Example 89, 1-[({(3R)-3-[({7-Methyl-3-oxo-4-[2-(propanoylamino)ethyl]-3,4-dihydrospiro[1,4-benzoxazine-2,1′-cyclobutan]-6-yl}carbonyl)(2-propanyl)amino]-1-piperidinyl}carbonyl)oxy]ethyl 3-pyridine carboxylate] |  | 

Further lines, the compound ahead of its results:

Row | Structure (SMILES) | IC50 (Recombinant human renin) | Observation at Administration Site, One day after administration [1] | Observation at Administration Site, Three days after administration [1]
13 | COCCCCN1C(=O)C(C)(C)Oc2cc(C(F)(F)F)c(C(=O)N(C(C)C)[C@@H]3CCCNC3)cc21.Cl [Comparative Example 1, 4-(4-methoxybutyl)-2,2-dimethyl-3-oxo-N-[(3R)-3-piperidinyl]-N-(2-propanyl)-7-(trifluoromethyl)-3,4-dihydro-2H-1,4-benzoxazine-6-carboxamide hydrochloride, reference compound] |  | *** | ****
14 | CCC(=O)NCCN1C(=O)C(C)(C)Oc2cc(C)c(C(=O)N(C(C)C)[C@@H]3CCCN(C(=O)OCc4oc(=O)oc4C)C3)cc21 [Example 2, (5-Methyl-2-oxo-1,3-dioxol-4-yl)methyl (3R)-3-[isopropyl({2,2,7-trimethyl-3-oxo-4-[2-(propionylamino)ethyl]-3,4-dihydro-2H-1,4-benzoxazin-6-yl}carbonyl)amino]piperidine-1-carboxylate] | 5.1 nM | — | —
15 | CCC(=O)NCCN1C(=O)C(C)(C)Oc2cc(C)c(C(=O)N(C(C)C)[C@@H]3CCCN(C(=O)OC(C)OC(=O)C(C)C)C3)cc21 (stereo partly drawn) [Example 1, 1-(Isobutyryloxy)ethyl (3R)-3-[isopropyl({2,2,7-trimethyl-3-oxo-4-[2-(propionylamino)ethyl]-3,4-dihydro-2H-1,4-benzoxazin-6-yl}carbonyl)amino]piperidine-1-carboxylate] | 160 nM |  | 
16 | CCC(=O)NCCN1C(=O)C(C)(C)Oc2cc(C(F)(F)F)c(C(=O)N(C(C)C)[C@@H]3CCCN(C(=O)[C@@H](N)C(C)C)C3)cc21 [Example 22, N-Isopropyl-2,2-dimethyl-3-oxo-4-[2-(propionylamino)ethyl]-7-(trifluoromethyl)-N-[(3R)-1-L-valylpiperidin-3-yl]-3,4-dihydro-2H-1,4-benzoxazine-6-carboxamide hydrochloride] | 85 nM |  | 
17 | CCC(=O)NCCN1C(=O)C(C)(C)Sc2cc(C(F)(F)F)c(C(=O)N(C(C)C)[C@@H]3CCCN(C(=O)OCc4oc(=O)oc4C)C3)cc21 [Example 30, (5-Methyl-2-oxo-1,3-dioxol-4-yl)methyl (3R)-3-[{[2,2-dimethyl-3-oxo-4-[2-(propionylamino)-ethyl]-7-(trifluoromethyl)-3,4-dihydro-2H-1,4-benzothiazin-6-yl]carbonyl}(isopropyl)amino]-piperidine-1-carboxylate] | 2.2 nM |  | 
18 | CCC(=O)NCCN1C(=O)C(C)(C)Oc2cc(C)c(C(=O)N(C(C)C)[C@@H]3CCCN(C(=O)OC(C)(C)OC(C)=O)C3)cc21 [Example 21, 1-(Acetyloxy)-1-methylethyl (3R)-3-[isopropyl({2,2,7-trimethyl-3-oxo-4-[2-(propionylamino)ethyl]-3,4-dihydro-2H-1,4-benzoxazin-6-yl}carbonyl)amino]piperidine-1-carboxylate] | 62 nM |  | 
19 | CCC(=O)NCCN1C(=O)C2(CCC2)Oc2cc(C)c(C(=O)N(C(C)C)C3CCCN(C(=O)OC(C)OC(C)=O)C3)cc21 (centres unmarked) [Example 33] | 1.2 nM |  | 
20 | CCC(=O)NCCN1C(=O)C(C)(C)Oc2cc(C)c(C(=O)N(C(C)C)[C@@H]3CCCN(C(=O)OCOC(=O)OCC4CC4)C3)cc21 [Example 11] | 460 nM |  | 
21 | CCC(=O)NCCN1C(=O)C2(CCC2)Oc2cc(C)c(C(=O)N(C(C)C)[C@@H]3CCCNC3)cc21.Cl [Comparative Example 3, N-isopropyl-7-methyl-3-oxo-N-[(3R)-piperidin-3-yl]-4-[2-(propionylamino)ethyl]-3,4-dihydrospiro[1,4-benzoxazine-2,1′-cyclobutane]-6-carboxamide hydrochloride, reference compound] |  | **** | ****
22 | CCC(=O)NCCN1C(=O)C(C)(C)Oc2cc(C(F)(F)F)c(C(=O)N(C(C)C)[C@@H]3CCCNC3)cc21.Cl [Comparative Example 2, 2,2-dimethyl-3-oxo-N-[(3R)-3-piperidinyl]-4-[2-(propanoylamino)ethyl]-N-(2-propanyl)-7-(trifluoromethyl)-3,4-dihydro-2H-1,4-benzoxazine-6-carboxamide hydrochloride, reference compound] |  | **** | ****
23 | CCC(=O)NCCN1C(=O)C(C)(C)Oc2cc(C(F)(F)F)c(C(=O)N(C(C)C)C3CCCN(C(=O)OC(C)OC(=O)C(C)C)C3)cc21 (centres unmarked) [Example 26] | 21 nM |  | 

From patent US8658639B2, “N-substituted-cyclic amino derivative” (Dainippon Sumitomo Pharma Co., Ltd, priority 2009, dated 2014)
